Experimental data published in patent US20180155344A1, “TRICYCLIC PIPERIDINE COMPOUNDS” (ACTELION PHARMACEUTICALS LTD, priority 2015, published 2018).

Molecular target: T1, human TPH1 (Homo sapiens, UniProt P17752)
T1 sequence (P17752 1-444): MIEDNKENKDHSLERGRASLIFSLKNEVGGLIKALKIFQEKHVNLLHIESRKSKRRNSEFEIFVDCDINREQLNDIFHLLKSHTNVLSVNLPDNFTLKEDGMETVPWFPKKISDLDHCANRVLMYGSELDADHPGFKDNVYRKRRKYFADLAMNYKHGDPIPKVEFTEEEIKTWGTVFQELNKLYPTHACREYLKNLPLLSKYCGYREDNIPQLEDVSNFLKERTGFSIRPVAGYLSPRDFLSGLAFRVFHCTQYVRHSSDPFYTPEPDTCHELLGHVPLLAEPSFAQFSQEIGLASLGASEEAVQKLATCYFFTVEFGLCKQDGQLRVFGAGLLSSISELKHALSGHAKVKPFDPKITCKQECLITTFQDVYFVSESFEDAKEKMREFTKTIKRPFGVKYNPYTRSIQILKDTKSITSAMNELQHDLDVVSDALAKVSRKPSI
Assay: biochemical
Summary of the method: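 Inhibition is derived from 5-hydroxy-L-tryptophan fluorescence (540 nm emission, 300 nm excitation) after perchloric acid stop, relative to DMSO vehicle. Recombinant full-length human enzyme (40-80 nM) reacts with 40 μM tryptophan plus 100 μM methyltetrahydropterin, pH 7.6 Tris/DTT/catalase, 15° C, 60 min.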

An IC50 of 25 nM was found for COc1cc(F)c(C2c3c(nc4cc(C(F)(F)F)ccn34)CCN2C(=O)COc2ccc(C3(N4CCOCC4)COC3)cc2Cl)cc1OC (stereo not shown) [Example 3.18.10, 2-(2-chloro-4-(3-morpholinooxetan-3-yl)phenoxy)-1-(1-(2-fluoro-4,5-dimethoxyphenyl)-7-(trifluoromethyl)-3,4-dihydroimidazo[1,2-a:5,4-c′]dipyridin-2(1H)-yl)ethan-1-one] in this work.

An IC50 of 30 nM was found for COc1cc(C2c3c(nc4cc(C(F)(F)F)ccn34)CCN2C(=O)COc2ccc3ccccc3c2)cnc1OC (stereo not shown) [Example 3.19.1, 1-(1-(5,6-dimethoxypyridin-3-yl)-7-(trifluoromethyl)-3,4-dihydroimidazo[1,2-a:5,4-c′]dipyridin-2(1H)-yl)-2-(naphthalen-2-yloxy)ethan-1-one] in this work.

An IC50 of 53 nM was found for COc1ccc(C2c3c(nc4cc(C(F)(F)F)ccn34)CCN2C(=O)COc2ccc3ccccc3c2)nc1OC (stereo not shown) [Example 3.20.1, 1-(1-(5,6-dimethoxypyridin-2-yl)-7-(trifluoromethyl)-3,4-dihydroimidazo[1,2-a:5,4-c′]dipyridin-2(1H)-yl)-2-(naphthalen-2-yloxy)ethan-1-one] in this work.

An IC50 of 69 nM was found for O=C(COc1ccc2ccccc2c1)N1CCc2nc3cc(C(F)(F)F)ccn3c2C1c1ncccc1F (stereo not shown) [Example 3.21.1, 1-(1-(3-fluoropyridin-2-yl)-7-(trifluoromethyl)-3,4-dihydroimidazo[1,2-a:5,4-c′]dipyridin-2(1H)-yl)-2-(naphthalen-2-yloxy)ethan-1-one] in this work.

An IC50 of 345 nM was found for O=C(COc1ccc(CN2CCOCC2)cc1Cl)N1CCc2nc3cc(C(F)(F)F)ccn3c2C1c1ncccc1F (stereo not shown) [Example 3.21.2, 2-(2-chloro-4-(morpholinomethyl)phenoxy)-1-(1-(3-fluoropyridin-2-yl)-7-(trifluoromethyl)-3,4-dihydroimidazo[1,2-a:5,4-c′]dipyridin-2(1H)-yl)ethan-1-one] in this work.

An IC50 of 88 nM was found for O=C(COc1ccc(N2CCOCC2)cc1Cl)N1CCc2nc3cc(C(F)(F)F)ccn3c2C1c1ncccc1F (stereo not shown) [Example 3.21.3, 2-(2-chloro-4-morpholinophenoxy)-1-(1-(3-fluoropyridin-2-yl)-7-(trifluoromethyl)-3,4-dihydroimidazo[1,2-a:5,4-c′]dipyridin-2(1H)-yl)ethan-1-one] in this work.

An IC50 of 464 nM was found for Cc1cc(Cl)ccc1OCC(=O)N1CCc2nc3cc(C(F)(F)F)ccn3c2C1c1ncccc1F (stereo not shown) [Example 3.21.4, 2-(4-chloro-2-methylphenoxy)-1-(1-(3-fluoropyridin-2-yl)-7-(trifluoromethyl)-3,4-dihydroimidazo[1,2-a:5,4-c′]dipyridin-2(1H)-yl)ethan-1-one] in this work.

An IC50 of 7 nM was found for Cc1ccc(C2c3c(nc4cc(C(F)(F)F)ccn34)CCN2C(=O)COc2ccc(CN3CCOCC3)cc2Cl)c(F)c1 (stereo not shown) [Example 3.22.1, 2-(2-chloro-4-(morpholinomethyl)phenoxy)-1-(1-(2-fluoro-4-methylphenyl)-7-(trifluoromethyl)-3,4-dihydroimidazo[1,2-a:5,4-c′]dipyridin-2(1H)-yl)ethan-1-one] in this work.

An IC50 of 44 nM was found for Cc1ccc(C2c3c(nc4cc(C(F)(F)F)ccn34)CCN2C(=O)COc2cccnc2Cl)c(F)c1 (stereo not shown) [Example 3.22.2, 2-((2-chloropyridin-3-yl)oxy)-1-(1-(2-fluoro-4-methylphenyl)-7-(trifluoromethyl)-3,4-dihydroimidazo[1,2-a:5,4-c′]dipyridin-2(1H)-yl)ethan-1-one] in this work.

An IC50 of 33 nM was found for Cc1ccc(C2c3c(nc4cc(C(F)(F)F)ccn34)CCN2C(=O)COc2nn(C)c(C(F)(F)F)c2Cl)c(F)c1 (stereo not shown) [Example 3.22.3, 2-((4-chloro-1-methyl-5-(trifluoromethyl)-1H-pyrazol-3-yl)oxy)-1-(1-(2-fluoro-4-methylphenyl)-7-(trifluoromethyl)-3,4-dihydroimidazo[1,2-a:5,4-c′]dipyridin-2(1H)-yl)ethan-1-one] in this work.

An IC50 of 17 nM was found for CCc1nc(C)ccc1OCC(=O)N1CCc2nc3cc(C(F)(F)F)ccn3c2C1c1ccc(C)cc1F (stereo not shown) [Example 3.22.4, 2-((2-ethyl-6-methylpyridin-3-yl)oxy)-1-(1-(2-fluoro-4-methylphenyl)-7-(trifluoromethyl)-3,4-dihydroimidazo[1,2-a:5,4-c′]dipyridin-2(1H)-yl)ethan-1-one] in this work.

An IC50 of 15 nM was found for Cc1ccc(C2c3c(nc4cc(C(F)(F)F)ccn34)CCN2C(=O)COc2ccc(NS(C)(=O)=O)nc2Cl)c(F)c1 (stereo not shown) [Example 3.22.5, N-(6-chloro-5-(2-(1-(2-fluoro-4-methylphenyl)-7-(trifluoromethyl)-3,4-dihydroimidazo[1,2-a:5,4-c′]dipyridin-2(1H)-yl)-2-oxoethoxy)pyridin-2-yl)methanesulfonamide] in this work.

An IC50 of 67 nM was found for Cc1ccc(C2c3c(nc4cc(C(F)(F)F)ccn34)CCN2C(=O)COc2ccc3ccccc3c2)cc1 (stereo not shown) [Example 3.23.1, 2-(naphthalen-2-yloxy)-1-(1-(p-tolyl)-7-(trifluoromethyl)-3,4-dihydroimidazo[1,2-a:5,4-c′]dipyridin-2(1H)-yl)ethan-1-one] in this work.

An IC50 of 32 nM was found for Cc1ccc(C2c3c(nc4cc(C(F)(F)F)ccn34)CCN2C(=O)COc2ccc(CN3CCOCC3)cc2Cl)cc1 (stereo not shown) [Example 3.23.2, 2-(2-chloro-4-(morpholinomethyl)phenoxy)-1-(1-(p-tolyl)-7-(trifluoromethyl)-3,4-dihydroimidazo[1,2-a:5,4-c′]dipyridin-2(1H)-yl)ethan-1-one] in this work.

An IC50 of 44 nM was found for COc1ccc(C2c3c(nc4cc(C(F)(F)F)ccn34)CCN2C(=O)COc2ccc3ccccc3c2)cc1 (stereo not shown) [Example 3.24.1, 1-(1-(4-methoxyphenyl)-7-(trifluoromethyl)-3,4-dihydroimidazo[1,2-a:5,4-c′]dipyridin-2(1H)-yl)-2-(naphthalen-2-yloxy)ethan-1-one] in this work.

An IC50 of 429 nM was found for COc1ccc(C2c3c(nc4cc(C(F)(F)F)ccn34)CCN2C(=O)COc2cccnc2Cl)cc1 (stereo not shown) [Example 3.24.2, 2-((2-chloropyridin-3-yl)oxy)-1-(1-(4-methoxyphenyl)-7-(trifluoromethyl)-3,4-dihydroimidazo[1,2-a:5,4-c′]dipyridin-2(1H)-yl)ethan-1-one] in this work.

An IC50 of 104 nM was found for CCOc1ccc(C2c3c(nc4cc(C(F)(F)F)ccn34)CCN2C(=O)COc2ccc3ccccc3c2)cc1 (stereo not shown) [Example 3.25.1, 1-(1-(4-ethoxyphenyl)-7-(trifluoromethyl)-3,4-dihydroimidazo[1,2-a:5,4-c′]dipyridin-2(1H)-yl)-2-(naphthalen-2-yloxy)ethan-1-one] in this work.

An IC50 of 20 nM was found for CCOc1ccc(C2c3c(nc4cc(C(F)(F)F)ccn34)CCN2C(=O)COc2ccc(CN3CCOCC3)cc2Cl)cc1 (stereo not shown) [Example 3.25.2, 2-(2-chloro-4-(morpholinomethyl)phenoxy)-1-(1-(4-ethoxyphenyl)-7-(trifluoromethyl)-3,4-dihydroimidazo[1,2-a:5,4-c′]dipyridin-2(1H)-yl)ethan-1-one] in this work.

An IC50 of 51 nM was found for CCOc1ccc(C2c3c(nc4cc(C(F)(F)F)ccn34)CCN2C(=O)COc2ccc(CN3CCOCC3)c(C)c2C)cc1 (stereo not shown) [Example 3.25.3, 2-(2,3-dimethyl-4-(morpholinomethyl)phenoxy)-1-(1-(4-ethoxyphenyl)-7-(trifluoromethyl)-3,4-dihydroimidazo[1,2-a:5,4-c′]dipyridin-2(1H)-yl)ethan-1-one] in this work.

An IC50 of 120 nM was found for O=C(COc1ccc2ccccc2c1)N1CCc2nc3cc(C(F)(F)F)ccn3c2C1c1ccc(OC(F)F)cc1 (stereo not shown) [Example 3.26.1, 1-(1-(4-(difluoromethoxy)phenyl)-7-(trifluoromethyl)-3,4-dihydroimidazo[1,2-a:5,4-c′]dipyridin-2(1H)-yl)-2-(naphthalen-2-yloxy)ethan-1-one] in this work.

An IC50 of 54 nM was found for O=C(COc1ccc(CN2CCOCC2)cc1Cl)N1CCc2nc3cc(C(F)(F)F)ccn3c2C1c1ccc(OC(F)F)cc1 (stereo not shown) [Example 3.26.2, 2-(2-chloro-4-(morpholinomethyl)phenoxy)-1-(1-(4-(difluoromethoxy)phenyl)-7-(trifluoromethyl)-3,4-dihydroimidazo[1,2-a:5,4-c′]dipyridin-2(1H)-yl)ethan-1-one] in this work.

An IC50 of 135 nM was found for O=C(COc1ccc(CN2CCOCC2)cc1Cl)N1CCc2nc3cc(C(F)(F)F)ccn3c2C1c1ccc(OC(F)(F)F)cc1 (stereo not shown) [Example 3.27.1, 2-(2-chloro-4-(morpholinomethyl)phenoxy)-1-(1-(4-(trifluoromethoxy)phenyl)-7-(trifluoromethyl)-3,4-dihydroimidazo[1,2-a:5,4-c′]dipyridin-2(1H)-yl)ethan-1-one] in this work.

An IC50 of 154 nM was found for O=C(COc1ccc2ccccc2c1)N1CCc2nc3cc(C(F)(F)F)ccn3c2C1c1ccc(C(F)(F)F)cc1 (stereo not shown) [Example 3.28.1, 2-(naphthalen-2-yloxy)-1-(7-(trifluoromethyl)-1-(4-(trifluoromethyl)phenyl)-3,4-dihydroimidazo[1,2-a:5,4-c′]dipyridin-2(1H)-yl)ethan-1-one] in this work.

An IC50 of 77 nM was found for O=C(COc1ccc(CN2CCOCC2)cc1Cl)N1CCc2nc3cc(C(F)(F)F)ccn3c2C1c1ccc(C(F)(F)F)cc1 (stereo not shown) [Example 3.28.2, 2-(2-chloro-4-(morpholinomethyl)phenoxy)-1-(7-(trifluoromethyl)-1-(4-(trifluoromethyl)phenyl)-3,4-dihydroimidazo[1,2-a:5,4-c′]dipyridin-2(1H)-yl)ethan-1-one] in this work.

An IC50 of 312 nM was found for O=C(COc1ccc2ccccc2c1)N1CCc2nc3cc(C(F)(F)F)ccn3c2C1c1ccc(F)cc1 (stereo not shown) [Example 3.29.1, 1-(1-(4-fluorophenyl)-7-(trifluoromethyl)-3,4-dihydroimidazo[1,2-a:5,4-c′]dipyridin-2(1H)-yl)-2-(naphthalen-2-yloxy)ethan-1-one] in this work.
